From BindingDB's records for doi:10.1021/jm950720u (Tohoku College of Pharmacy, 1996) come the findings set out here.

The test deals with T1, Aromatase (Homo sapiens, UniProt P11511).
T1 sequence (P11511 whole entry): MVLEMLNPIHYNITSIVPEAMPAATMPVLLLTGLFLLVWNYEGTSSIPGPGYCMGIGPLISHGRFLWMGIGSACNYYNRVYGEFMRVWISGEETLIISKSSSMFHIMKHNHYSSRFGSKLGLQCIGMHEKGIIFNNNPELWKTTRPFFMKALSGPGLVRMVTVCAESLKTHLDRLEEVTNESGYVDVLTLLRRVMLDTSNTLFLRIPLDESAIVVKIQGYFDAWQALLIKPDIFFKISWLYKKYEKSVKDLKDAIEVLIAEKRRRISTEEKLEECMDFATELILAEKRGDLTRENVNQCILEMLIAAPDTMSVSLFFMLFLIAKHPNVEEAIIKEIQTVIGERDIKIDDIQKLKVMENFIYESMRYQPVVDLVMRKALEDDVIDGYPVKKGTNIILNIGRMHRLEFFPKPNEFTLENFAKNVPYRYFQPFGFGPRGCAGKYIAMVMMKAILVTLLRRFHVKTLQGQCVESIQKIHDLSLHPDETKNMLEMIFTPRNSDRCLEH
Kind of test: Aromatase Assay. To be noted: pH 7.5; 37 °C. As to the method: The enzyme activity was assayed by measuring the 3H-labeled H2O formed from [1beta-3H] Androstenedione during aromatization. After incubation, the reaction was terminated by CHCl3 extraction and centrifugation. Aliquots of the water phase were assayed for the presence of 3H2O by counting using a liquid scintillation spectrometer.

Broadly, the IC50 is the concentration needed to halve the response being measured. High values mean a need for much substance, low ones inhibition by little substance. The Ki is a measure of affinity in units of concentration, obtained from inhibition or displacement. `C[C@]12CCC(=O)C=C1CCC1C2CC[C@]2(C)C(=O)CCC12` (stereo partly drawn) [[1beta-3H] androstenedione] registered an IC50 of 300 nM and a Ki of 20 nM.
